The source of these data is patent US20250222109A1, “STRUCTURED LIPID COMPOSITIONS” (Universität Bern, priority 2022, published 2025).

Where a name gives a salt, the structure may show the parent alone.

A short description of data set [1]: SAXS phase identification of MLO-water mesophases (TIF-Gel). The format is physicochemical. Here is the method:
SAXS measurements were used to determine the phase identity and symmetry of the produced LMPs. Measurements were performed on a Bruker AXS Micro, with a microfocused X-ray source, operating at voltage and filament current of 50 kV and 1000 μA, respectively. The Cu Kα radiation (λCu Kα=1.5418 Å) was collimated by a 2D Kratky collimator, and the data were collected by a 2D Pilatus 100K detector. The scattering vector Q=(4π/λ) sin θ, with 2θ being the scattering angle, was calibrated using silver behenate. Data were collected and azimuthally averaged using the Saxsgui software to yield 1D intensity vs. scattering vector Q, with a Q range from 0.001 to 0.5 Å^−1. For all measurements the samples were placed inside a stainless-steel cell between two thin replaceable mica sheets and sealed by an O-ring, with a sample volume of 10 μL and a thickness of ˜1 mm. Measurements were performed at 25° C., 30° C., 34° C., 36° C. and 38° C. Samples were equilibrated for 10 min before measurements whereas scattered intensity was collected over 30 min and over 60 min in case of lamellar phase. On the other hand, for the kinetic study, the sample was pre equilibrated at 25° C. and inserted in the sample holder kept at 38° C. and the scattered intensity collected over 5 min. To determine the structural parameters such as the size of the water channels, SAXS data information on the lattice were combined with the composition of the samples (R. Mezzenga, et al., Shear rheology of lyotropic liquid crystals: a case study, Langmuir 21, 3322-3333 (2005)).
MLO was used as the lipid component of the mesophases and mixed with weighed amounts of drugs (10% w/w) in sealed Pyrex tubes and alternatively centrifuging (10 min, 5000 g) several times at room temperature until a homogenous mixture was obtained. The mesophase was then equilibrated for 48 h at room temperature in the dark (see, FIGS. 1A and 1B).
Firstly, small angle X-ray scattering (SAXS) measurements were used to determine the optimal amount of water needed to obtain a lamellar phase which provides a transition to a cubic at 38° C. (FIGS. 2B and 2C). The X-ray beam directed at the gel results in a scattering pattern with a set of maxima, that correspond to sharp Bragg reflections characteristic of the long-range positional order. The sequence of Bragg reflections (and their ratio; listed in FIG. 2A) identifies the symmetry of the mesophase studied (See also FIGS. 1A and 1B).

The nature of data set [2]: In vitro release of TOFA and TAC from TIF-Gel, vertical diffusion cells. The data set is classed as physicochemical. The note with it: HEPES pH 7.4, 37° C., 8 h. An excerpt: In the in vitro release experiments, drug-loaded TIF-Gel formulations were placed in the donor chamber of a vertical diffusion cell (as depicted in FIG. 3G) and kept separated from the acceptor chamber by a polycarbonate membrane with pore diameter of 3 μm, which allows the passage of the free drugs only.

Data set [3] can be described thus: Stability study of TAC and TOFA-loaded TIF-Gel (HPLC). The data set is classed as physicochemical. Conditions: 4° C. and 25° C., one-month period. The method, then: The TAC and TOFA-loaded TIF-Gels were prepared according to Example 1. […] The TAC-loaded TIF-Gel composition comprised a) a carrier comprising: a1) water in an amount of 16% by weight of the carrier; and a2) MLO in an amount of 84% by weight of the carrier; and b) TAC in an amount of 1% by weight of the composition. […] At specific time points, an aliquot of the formulation was analysed at the HPLC, and the content of the drug was recorded. Data are expressed as relative percentage referred to day 0.

Data set [4] deals with dextran sulfate sodium (DSS)-induced acute colitis. Nature of the data set: Chemically induced colitis based on application of DSS. The data set is classed as in vivo, mice. An excerpt: Female 6-8 week-old C57B/6J Mice (ex. Charles River Germany) were maintained under specific and opportunistic pathogen-free (SOPF) microbiota conditions at the animal facility of the University of Bern. Mice were ear marked, randomly assigned to different cages and treatment groups, and bedding mixed between all cages to avoid potential cage effects on microbiota. All methods used were approved by the Bernese animal welfare authority (permission no. BE 20/18). […] The next day, mouse drinking water was supplemented with 2% w/v dextran sodium sulfate (DSS; MP Biomedicals, 160110). Every other day, the different compounds were applied intra-rectally until the end of the experiment. During the experiment, the mice were constantly monitored and the weight and disease scores were recorded when appropriate. Disease score was determined by grading of 1-4 of the following criteria (with grade 4 corresponding to most unhealthy/abnormal): posture, mobility, fur appearance, weight, stool consistency, and stool colour (L. F. Mager, et al., The ESRP1-GPR137 axis contributes to intestinal pathogenesis, Elife 6 (2017), doi: 10.7554/eLife.28366.). […]
The gating strategy was adapted from the inventors previously published work (S. E. Liyanage, et al., Flow cytometric analysis of inflammatory and resident myeloid populations in mouse ocular inflammatory models, Exp. Eye Res. 151, 160-170 (2016)). […] Splenocytes were quantified using a CASY cell counter (Omni Life Sciences) and the following populations were quantified following single cell and live/dead selection (Thermofischer, L34961). […] Stained cells were analysed on a BD Bioscience LSR II SORP flow cytometer.
DSS is toxic to epithelial cells and its application compromises the integrity of the intestinal barrier, thereby leading to activation of submucosal immune cells by intestinal microbes. Through experimentation, it was determined that bi-daily application of the gel yielded robust mitigation of local and systemic inflammation.

Data set [5] can be described thus: Drug encapsulation and distribution in TIF-Gel (WAXS, HPLC of gel layers). The data set is classed as physicochemical. The method, then:
The tube was centrifuged and kept at rest for 24 hours. Subsequently, the gel was divided into 3 different layers (Top, Middle, and Bottom), and the drug content evaluated in each by HPLC.
WAXS measurements were performed on a Bruker AXS Micro, with a microfocused X-ray source, operating at voltage and filament current of 50 kV and 1000 μA, respectively. The Cu Kα radiation (λCu Kα=1.5418 Å) was collimated by a 2D Kratky collimator, and the data were collected by a 2D Pilatus 100K detector. The scattering vector Q=(4π/λ) sin θ, with 2θ being the scattering angle, was calibrated using silver behenate. Data were collected and azimuthally averaged using the Saxsgui software to yield 1D intensity vs. scattering vector Q, with a Q range from 13 to 18 nm-1. For all measurements the samples were placed inside a stainless-steel cell between two thin replaceable mica sheets and sealed by an O-ring, with a sample volume of 10 μL and a thickness of ˜1 mm.
The TAC loaded mesophase composition comprised: a) a carrier comprising: a1) water in an amount of 16% by weight of the carrier; and a2) MLO in an amount of 84% by weight of the carrier; and b) TAC in an amount of 1% by weight of the composition.

A short description of data set [6]: SAXS phase identification of MLO-water mesophases (TIF-Gel). Conditions: 5 mg of TOFA and 1 mg of TAC in 100 mg of gel. The data set is classed as physicochemical.
[7] abbreviates: rectal, every other day, vs empty TIF-Gel.

On to `CCCCC/C=C\C/C=C\CCCCCCCC(=O)OCC(O)CO` (stereo not drawn) [MLO, 2,3-dihydroxypropyl(9Z,12Z)-9,12-octadecadienoate], for which the “phase identity (SAXS)” value in data set [1] (12% of water, 25° C. and 38° C.) was “L phase”; in data set [1] (14% of water, 25° C.), “lamellar structure”; in data set [1] (14% of water, 38° C.), “coexistence of L and Q structure (with a Ia3d geometry)”; in data set [1] (16% w/w of water and 84% w/w of MLO, 25° C.), “lamellar structure”; in data set [1] (16% w/w of water and 84% w/w of MLO, 38° C.), “Q structure (with a Ia3d geometry)”. In addition, the “temperature of the L→Q transition” value in data set [1] (18% w/w of water) turned out to be 30 °C. In addition, in data set [1] (lipase 1000 U/mL), the “phase transition in the presence of lipase” value is “Q→Hexagonal phase (H)”. In addition, the “time of conversion of precursor L phase into the cubic phase” value in data set [1] (once applied into the rectum) is < 5 min.

`C[C@@H]1CCN(C(=O)CC#N)C[C@@H]1N(C)c1ncnc2[nH]ccc12` [TOFA, Tofacitinib citrate]: in data set [2], the “drug release from the gel vs free drug, in vitro” value is listed as “decreased the release rate”. Further, the “long-term stability of drug loaded into TIF-gel (drug content by HPLC)” value in data set [3] was “stable”. The “local pro-inflammatory cytokine levels” value in data set [4] (colon tissue) is “reduced”. Also, in data set [4] (setting [7]), the “disease score / disease severity” value is reported as “did not improve the disease score” and the weight loss entry is “improving weight loss”. Besides, in data set [5] (Top, Middle and Bottom gel layers, HPLC), the “distribution of drug in the gel matrix” value is on record as “homogeneously distributed”. For the same compound, in data set [5] (embedded in the 3D gel structure), the “drug crystallisation in the gel (WAXS)” value is given as “do not form crystals”. Also, in data set [5] (encapsulated in the TIF-Gel), the encapsulation efficacy was 100%. The “effect of drug on phase identity and transition temperature of the gel” value in data set [1] (10% w/w of drug, lamellar at room temperature, cubic (Ia3d) at 38° C.) is “did not affect the phase identity and the transition temperature”. For the same compound, the “effect of drug entrapment on phase identity and thermal behaviour of the carrier gel” value in data set [6] was “did not affect the phase identity and thermal behaviour”.
